Assay results as given in ChEMBL document CHEMBL1201862, “PubChem BioAssay data set” (2004).
Activity calls are given as the source filed them.

Legend:
[1] = A Cell Based Secondary Assay To Explore Cytotoxicity of Compounds that Sensitize Mycobacterium Tuberculosis to Beta-Lactam Antibiotics.; assay type: functional
[2] = inhibitors of firefly luciferase expression or activity, dose response, H4 neuroglioma cells, luminescence (AID 1990); assay type: functional, cell-based
[3] = tested on: BJ; experiment: cells; assay type: functional, cell-based; conditions: Homo sapiens
[4] = cytotoxicity in HEK-293T NF-kB-Luc cells, dose response, cytotoxicity control for B/T-cell NF-kB inhibitor project, cell-based, uHTS hits (AID 489019); assay type: functional;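 further: IC50 reflects cytotoxicity as loss of cell viability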
[5] = tested on: BJ; experiment: cytotoxicity toward BJ-TERT fibroblasts, dose response, cell-based, RAS-independent, luminescence (AID 1933); assay type: functional; conditions: Homo sapiens
[6] = cells; assay type: functional, cell-based
[7] = Luminescence Cell-Based Dose Confirmation HTS to Identify Inhibitors of Platelet Dense Granule Release. [Related pubchem assays: 1663 (Primary HTS), 1678 (Summary of Project)]; assay type: functional
[8] = Shn3 3'UTR reporter inhibitors, dose response, cell-based, Clone20 osteoblasts, firefly luciferase, cherry-picked (AID 624132); assay type: functional;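 further: firefly luciferase luminescence from reporter carrying the Shn3 3'UTR in osteoblasts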
[9] = biological target: Paired box protein Pax-8 (Homo sapiens, UniProt Q06710); experiment: inhibitors of PAX8-driven TPO luciferase reporter, dose response, RMG-I cells, cherry-pick (AID 687027); assay type: functional, cell-based;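 further: luciferase reporter driven by Pax8 target thyroperoxidase promoter measured by SteadyGlo luminescence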
Sequence of Paired box protein Pax-8 (Q06710 whole entry): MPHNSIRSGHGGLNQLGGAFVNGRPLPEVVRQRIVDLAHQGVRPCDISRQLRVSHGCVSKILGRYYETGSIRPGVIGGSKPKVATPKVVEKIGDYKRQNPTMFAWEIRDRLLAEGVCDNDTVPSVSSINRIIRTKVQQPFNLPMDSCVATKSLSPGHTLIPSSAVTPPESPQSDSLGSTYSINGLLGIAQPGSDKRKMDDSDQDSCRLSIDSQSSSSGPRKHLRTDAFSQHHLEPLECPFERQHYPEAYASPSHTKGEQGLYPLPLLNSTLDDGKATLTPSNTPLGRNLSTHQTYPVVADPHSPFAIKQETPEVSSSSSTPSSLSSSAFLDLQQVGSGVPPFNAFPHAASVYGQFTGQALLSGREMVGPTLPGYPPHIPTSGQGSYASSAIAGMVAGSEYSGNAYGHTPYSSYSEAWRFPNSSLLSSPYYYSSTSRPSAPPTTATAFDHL

[10] = cells
[11] = biological target: T1, Oxysterols receptor LXR-beta (Homo sapiens, UniProt P55055); assay type: functional, cell-based;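 further: Cell-based luminescence dose-response assay of agonist activity at LXR, run as a confirmatory counterscreen to a daf-12 agonist screen; HEK293 cells with Gal4-LXR fusion and GAL4-driven luciferase reporter; agonist potency from rising luciferase signal of a Gal4-LXR reporter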
T1 sequence (P55055 whole entry): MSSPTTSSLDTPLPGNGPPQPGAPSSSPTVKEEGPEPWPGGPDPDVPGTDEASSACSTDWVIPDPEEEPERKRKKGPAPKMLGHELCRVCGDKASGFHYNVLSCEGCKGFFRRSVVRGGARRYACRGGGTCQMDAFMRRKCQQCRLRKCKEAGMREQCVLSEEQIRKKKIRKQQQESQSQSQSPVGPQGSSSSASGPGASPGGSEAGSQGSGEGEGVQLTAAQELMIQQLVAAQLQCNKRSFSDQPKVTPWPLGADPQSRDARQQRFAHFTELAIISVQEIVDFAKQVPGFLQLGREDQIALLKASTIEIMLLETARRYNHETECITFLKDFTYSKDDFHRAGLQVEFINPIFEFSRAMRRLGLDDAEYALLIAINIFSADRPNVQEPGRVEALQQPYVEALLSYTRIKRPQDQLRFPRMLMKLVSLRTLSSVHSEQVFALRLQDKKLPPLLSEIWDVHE

[12] = biological target: Luciferin 4-monooxygenase (Photinus pyralis, UniProt P08659); experiment: firefly luciferase enzyme inhibitors, dose response, biochemical, luminescence (AID 1891)
Sequence of Luciferin 4-monooxygenase (P08659 whole entry): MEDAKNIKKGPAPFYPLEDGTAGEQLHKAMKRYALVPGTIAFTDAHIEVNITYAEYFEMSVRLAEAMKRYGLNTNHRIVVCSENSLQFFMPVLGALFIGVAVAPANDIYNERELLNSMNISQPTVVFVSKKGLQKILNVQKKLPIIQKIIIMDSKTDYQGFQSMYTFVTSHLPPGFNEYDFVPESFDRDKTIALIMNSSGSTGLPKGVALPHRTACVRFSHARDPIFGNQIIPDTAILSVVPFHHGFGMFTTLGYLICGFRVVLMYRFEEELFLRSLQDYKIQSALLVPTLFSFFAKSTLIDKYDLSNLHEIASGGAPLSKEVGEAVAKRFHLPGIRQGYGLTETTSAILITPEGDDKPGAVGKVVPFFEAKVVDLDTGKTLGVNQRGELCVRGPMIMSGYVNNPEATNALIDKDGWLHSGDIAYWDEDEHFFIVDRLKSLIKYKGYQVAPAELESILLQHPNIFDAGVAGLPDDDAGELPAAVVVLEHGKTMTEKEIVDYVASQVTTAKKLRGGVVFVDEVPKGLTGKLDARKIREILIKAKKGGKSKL

[13] = non-specific cell cytotoxicity, dose response, cytotoxicity control for PAX8 inhibitor project, plate reader, dry powder samples (AID 743021); assay type: functional, cell-based
[14] = inhibitors of SNCA 5'UTR-driven translation, confirmation, luminescence, H4 neuroglioblastoma cells, dose confirmation (AID 2454); assay type: functional, cell-based;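 further: H4 neuroglioblastoma cells carrying an alpha-synuclein 5'UTR luciferase reporter; potency for inhibition of the luciferase signal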
[15] = inhibitors of SNCA 5'UTR-driven reporter translation, confirmation, H4 neuroglioma cells, luminescence (AID 1988); assay type: functional, cell-based
[16] = tested on: BJ; experiment: cytotoxicity toward BJ-TERT-LT-ST fibroblasts, dose response, cell-based, RAS-independent, luminescence (AID 1935); assay type: functional; conditions: Homo sapiens;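 further: BJ fibroblasts immortalized with TERT plus LT and ST oncogenes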
[17] = tested on: Jurkat; experiment: antigen receptor-induced NF-kB inhibitors, dose response, Jurkat, luciferase reporter, luminescence, B- and T-cell (AID 489004); assay type: functional, cell-based; conditions: Homo sapiens;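 further: NF-kB luciferase reporter Jurkat cells stimulated with PMA plus ionomycin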
[18] = HepG2 cell cytotoxicity, dose response, cytotoxicity control for Shn3 inhibitor project, CellTiter-Glo, cherry-picked (AID 624134); assay type: functional, cell-based
[19] = luciferase reporter signal reduction – luminescence, H4-C neuroglioblastoma cells, dose response (AID 2458); assay type: functional, cell-based;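 further: H4 neuroglioblastoma cells stably carrying a luciferase reporter gene fusion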
[20] = Luminescence Cell-Based Dose Response HTS to Identify Inhibitors of 5'UTR Stem-Loop Driven Prion Protein mRNA Translation in H4 Neuroglioblastoma Cells. [Related pubchem assays: 1827 (Project Summary), 1813 (Primary HTS)]; assay type: functional
[21] = cytotoxicity toward DRD oncogenic fibroblasts, dose response, cell-based, non-viral oncogenic, luminescence (AID 1934); assay type: functional; conditions: Homo sapiens
[22] = M. tuberculosis H37Rv growth inhibitors, H37Rv strain (AID 1626); assay type: functional
[23] = cells; assay type: functional, cell-based; remark: listed apart in the source
[24] = cells; assay type: functional, cell-based; remark: listed apart in the source
[25] = biological target: Voltage-gated inwardly rectifying potassium channel KCNH2 (Homo sapiens, UniProt Q12809); experiment: hERG protection from proarrhythmic block, potency, dose response, cell-based, thallium flux (AID 2121); assay type: ADME
Sequence of Voltage-gated inwardly rectifying potassium channel KCNH2 (Q12809 whole entry): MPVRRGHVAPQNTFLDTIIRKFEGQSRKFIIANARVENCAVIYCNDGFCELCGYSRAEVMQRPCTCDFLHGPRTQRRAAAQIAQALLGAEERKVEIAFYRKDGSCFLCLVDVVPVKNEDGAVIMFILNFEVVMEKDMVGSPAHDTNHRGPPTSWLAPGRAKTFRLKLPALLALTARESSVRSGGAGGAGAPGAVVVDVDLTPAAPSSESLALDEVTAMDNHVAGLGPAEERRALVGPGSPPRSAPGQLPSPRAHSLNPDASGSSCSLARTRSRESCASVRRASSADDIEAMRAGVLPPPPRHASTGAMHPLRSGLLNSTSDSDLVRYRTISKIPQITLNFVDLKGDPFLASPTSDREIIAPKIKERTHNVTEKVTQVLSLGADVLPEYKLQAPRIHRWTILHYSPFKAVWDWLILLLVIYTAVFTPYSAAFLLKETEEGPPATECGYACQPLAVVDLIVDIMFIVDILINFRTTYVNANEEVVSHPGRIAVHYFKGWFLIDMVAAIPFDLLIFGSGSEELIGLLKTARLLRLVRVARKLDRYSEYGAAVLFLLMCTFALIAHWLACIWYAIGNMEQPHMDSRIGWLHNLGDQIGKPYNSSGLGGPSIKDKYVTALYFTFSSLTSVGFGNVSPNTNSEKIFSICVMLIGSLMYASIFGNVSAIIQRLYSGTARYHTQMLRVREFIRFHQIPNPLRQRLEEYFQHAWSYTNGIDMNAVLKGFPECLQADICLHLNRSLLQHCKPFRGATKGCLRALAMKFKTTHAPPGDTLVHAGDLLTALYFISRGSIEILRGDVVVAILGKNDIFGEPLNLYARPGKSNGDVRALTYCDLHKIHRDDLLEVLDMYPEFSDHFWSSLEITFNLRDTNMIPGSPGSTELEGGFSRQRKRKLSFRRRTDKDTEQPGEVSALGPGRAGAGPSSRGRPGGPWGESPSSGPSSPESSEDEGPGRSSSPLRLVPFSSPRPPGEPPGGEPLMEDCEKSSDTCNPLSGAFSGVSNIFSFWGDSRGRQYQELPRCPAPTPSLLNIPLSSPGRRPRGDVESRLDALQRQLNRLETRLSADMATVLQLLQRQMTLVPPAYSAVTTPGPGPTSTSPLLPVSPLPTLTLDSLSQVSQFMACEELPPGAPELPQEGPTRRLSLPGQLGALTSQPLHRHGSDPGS

[26] = biological target: T2, Mannose-6-phosphate isomerase (Homo sapiens, UniProt P34949); experiment: inhibitors of human PMI, primary screen, biochemical, fluorescence intensity, coupled assay (AID 1209)
T2 sequence (P34949 whole entry): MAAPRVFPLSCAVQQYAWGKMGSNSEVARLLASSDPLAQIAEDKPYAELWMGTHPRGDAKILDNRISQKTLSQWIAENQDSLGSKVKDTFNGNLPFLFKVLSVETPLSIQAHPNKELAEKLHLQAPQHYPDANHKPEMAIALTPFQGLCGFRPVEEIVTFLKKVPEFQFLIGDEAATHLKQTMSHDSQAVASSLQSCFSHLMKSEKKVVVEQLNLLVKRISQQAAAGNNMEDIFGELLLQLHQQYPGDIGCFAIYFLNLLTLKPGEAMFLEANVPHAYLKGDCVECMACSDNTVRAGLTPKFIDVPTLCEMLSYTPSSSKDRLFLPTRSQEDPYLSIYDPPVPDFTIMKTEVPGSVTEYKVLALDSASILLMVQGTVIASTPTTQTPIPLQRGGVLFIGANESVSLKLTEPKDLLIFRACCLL

[27] = biological target: T2, Mannose-6-phosphate isomerase; experiment: human PMI inhibitors, high substrate, primary screen, biochemical, fluorescence intensity, high mannose 6-phosphate (AID 1220)
[28] = biological target: T3, Cytochrome P450 1A2 (Homo sapiens, UniProt P05177);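 further: PubChem cytochrome P450 panel assay, CYP1A2 panel member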
T3 sequence (P05177 whole entry): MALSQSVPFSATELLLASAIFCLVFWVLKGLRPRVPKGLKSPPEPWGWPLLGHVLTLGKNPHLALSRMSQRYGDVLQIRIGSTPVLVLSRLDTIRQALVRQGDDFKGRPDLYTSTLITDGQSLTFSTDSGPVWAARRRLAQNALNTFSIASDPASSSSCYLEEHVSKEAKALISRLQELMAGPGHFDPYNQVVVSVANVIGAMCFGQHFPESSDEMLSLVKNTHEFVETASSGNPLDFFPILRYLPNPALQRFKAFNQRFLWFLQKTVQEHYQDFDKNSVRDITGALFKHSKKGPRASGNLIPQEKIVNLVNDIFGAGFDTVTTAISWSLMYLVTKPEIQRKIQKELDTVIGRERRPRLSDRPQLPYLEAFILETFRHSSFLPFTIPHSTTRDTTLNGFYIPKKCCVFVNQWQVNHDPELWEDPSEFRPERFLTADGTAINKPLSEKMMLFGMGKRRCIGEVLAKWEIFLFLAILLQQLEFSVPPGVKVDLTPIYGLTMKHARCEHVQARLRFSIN

[29] = biological target: Cytochrome P450 2C9 (Homo sapiens, UniProt P11712)
Sequence of Cytochrome P450 2C9 (P11712 whole entry): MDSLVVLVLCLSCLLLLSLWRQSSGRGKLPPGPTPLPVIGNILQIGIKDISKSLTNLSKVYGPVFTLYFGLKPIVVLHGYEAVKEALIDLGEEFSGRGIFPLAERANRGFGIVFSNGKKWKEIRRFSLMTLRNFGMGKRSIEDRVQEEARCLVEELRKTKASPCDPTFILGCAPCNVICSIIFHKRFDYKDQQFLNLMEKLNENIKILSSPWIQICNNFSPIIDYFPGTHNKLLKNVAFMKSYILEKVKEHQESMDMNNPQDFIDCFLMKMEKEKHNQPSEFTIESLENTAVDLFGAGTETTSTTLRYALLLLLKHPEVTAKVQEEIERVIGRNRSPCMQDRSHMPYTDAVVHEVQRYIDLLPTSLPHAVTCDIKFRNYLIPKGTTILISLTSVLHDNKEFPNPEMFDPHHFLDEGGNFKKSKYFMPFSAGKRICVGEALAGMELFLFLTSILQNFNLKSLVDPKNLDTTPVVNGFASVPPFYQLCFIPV

[30] = biological target: Cytochrome P450 2C19 (Homo sapiens, UniProt P33261); experiment: Cytochrome panel assay with activity outcomes. Panel member name: p450-cyp2c19 Compounds with AC50 equal or less than 10 uM are considered active; assay type: functional; conditions: read-out: AC50
Sequence of Cytochrome P450 2C19 (P33261 whole entry): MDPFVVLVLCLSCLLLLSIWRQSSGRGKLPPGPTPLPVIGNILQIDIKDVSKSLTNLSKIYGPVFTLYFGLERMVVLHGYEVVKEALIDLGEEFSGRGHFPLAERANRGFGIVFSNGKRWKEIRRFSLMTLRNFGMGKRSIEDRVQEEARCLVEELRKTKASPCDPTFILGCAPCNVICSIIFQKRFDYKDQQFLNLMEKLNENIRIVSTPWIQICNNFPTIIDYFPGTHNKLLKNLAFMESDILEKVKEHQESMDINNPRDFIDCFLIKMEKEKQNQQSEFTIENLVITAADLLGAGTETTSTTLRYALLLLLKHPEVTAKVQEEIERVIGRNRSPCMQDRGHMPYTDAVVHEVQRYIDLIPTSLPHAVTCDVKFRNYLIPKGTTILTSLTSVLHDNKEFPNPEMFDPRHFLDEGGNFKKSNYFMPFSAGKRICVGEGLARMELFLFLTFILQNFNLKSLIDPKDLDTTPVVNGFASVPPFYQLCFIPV

[31] = Luminescence Cell-Based Dose Retest to Confirm Inhibitors of Cancer Stem Cells. [Related pubchem assays (depositor defined):AID2717, AID2721]; assay type: functional; conditions: Homo sapiens
[32] = biological target: T4, Heat shock factor protein 1 (Mus musculus, UniProt P38532); experiment: inhibition of MG132-induced HSE-luciferase signal, confirmation, cell-based, NIH3T3, luminescence, dose retest (AID 2382); assay type: functional;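 further: NIH3T3 fibroblasts with HSF1-driven luciferase reporter stressed by proteasome inhibitor MG132; luminescence from HSF1-driven luciferase expression after 8 hours of MG132 stress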
T4 sequence (P38532 whole entry): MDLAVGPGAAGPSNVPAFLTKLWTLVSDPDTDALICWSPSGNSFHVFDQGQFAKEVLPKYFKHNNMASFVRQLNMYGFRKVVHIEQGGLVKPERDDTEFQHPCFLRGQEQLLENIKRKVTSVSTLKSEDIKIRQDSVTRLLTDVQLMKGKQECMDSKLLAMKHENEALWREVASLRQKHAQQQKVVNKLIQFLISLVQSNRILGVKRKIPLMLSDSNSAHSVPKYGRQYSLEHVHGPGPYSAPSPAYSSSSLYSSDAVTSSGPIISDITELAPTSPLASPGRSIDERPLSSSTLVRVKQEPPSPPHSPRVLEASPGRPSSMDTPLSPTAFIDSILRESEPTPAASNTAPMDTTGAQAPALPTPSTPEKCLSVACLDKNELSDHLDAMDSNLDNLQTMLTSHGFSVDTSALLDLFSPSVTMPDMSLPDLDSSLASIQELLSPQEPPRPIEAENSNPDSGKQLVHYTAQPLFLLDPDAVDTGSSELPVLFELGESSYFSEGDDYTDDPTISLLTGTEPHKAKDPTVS

[33] = cytotoxicity in HEK-293T cells, dose response, cytotoxicity control for TCR NF-kB inhibitor project, luminescence, T-cell screen hits (AID 489026); assay type: functional, cell-based;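 further: cells exposed to compound about 14 hours before the viability readout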
[34] = biological target: T5, Microphthalmia-associated transcription factor (Homo sapiens, UniProt O75030); experiment: TRPM1 promoter luciferase signal decrease, dose response, MITF inhibitor project, cell-based, SK-MEL-5, cherry-picked, set 3 (AID 493073); assay type: functional
T5 sequence (O75030 whole entry): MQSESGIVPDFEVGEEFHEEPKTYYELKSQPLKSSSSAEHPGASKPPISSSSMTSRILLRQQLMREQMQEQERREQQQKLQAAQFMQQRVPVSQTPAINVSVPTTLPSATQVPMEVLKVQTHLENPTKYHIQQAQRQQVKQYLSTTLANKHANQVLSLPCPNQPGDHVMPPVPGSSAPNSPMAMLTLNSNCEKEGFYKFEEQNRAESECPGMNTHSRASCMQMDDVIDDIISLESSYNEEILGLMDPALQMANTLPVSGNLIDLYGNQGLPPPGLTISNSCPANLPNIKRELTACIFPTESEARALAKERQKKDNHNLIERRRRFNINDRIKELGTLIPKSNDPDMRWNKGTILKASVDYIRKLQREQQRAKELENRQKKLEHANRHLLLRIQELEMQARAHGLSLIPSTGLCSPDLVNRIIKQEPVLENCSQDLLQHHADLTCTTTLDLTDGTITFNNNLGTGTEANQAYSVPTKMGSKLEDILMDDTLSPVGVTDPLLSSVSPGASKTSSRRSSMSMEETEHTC

[35] = HIV-1 Env-mediated cell fusion inhibitors, dose response, CCR5-tropic Env (AID 2279); assay type: functional

SMILES: Cc1cccc(OCc2n[nH]c(-c3ccccn3)n2)c1
- CC50 [1]: 28 µM (active)

SMILES: O=C(Nc1ccc([N+](=O)[O-])cc1)C(=O)Nc1cccc(C(=O)O)c1
- EC50 [2]: < 0.1 µM (active)
- EC50 [3]: 7.23 µM (active)
- IC50 [4]: > 80 µM (inactive)
- EC50 [5]: 16.2 µM (active)
- EC50 [6]: > 12 µM (inconclusive)
- EC50 [7]: 2.09 µM (active)
- AC50 [8]: 4.21 µM (active)
- AC50 [9]: 5 µM (active)
- EC50 [10]: > 67.5 µM (inactive)
- EC50 [11]: > 67.5 µM (inactive)
- EC50 [12]: 0.984 µM (active)
- AC50 [13]: 5.98 µM (active)
- EC50 [14]: 0.115 µM (active)
- EC50 [15]: < 0.1 µM (active)
- EC50 [16]: > 75 µM (inconclusive)
- IC50 [17]: 1.57 µM (active)
- AC50 [18]: 56.2 µM (active)
- EC50 [19]: 0.126 µM (active)
- EC50 [20]: < 0.1 µM (active)
- EC50 [21]: 8.07 µM (active)

SMILES: CCOc1ccc(/C=C/C(=O)c2ccccc2)cc1OC
- IC50 [22]: > 100 µM (active)
- EC50 [23]: 10.2 µM (active)
- EC50 [24]: > 350 µM (not active)

SMILES: COC(=O)c1c(NS(=O)(=O)c2ccc3ccccc3c2)sc2c1CCCC2
- EC50 [25]: 7.18 µM (active)

SMILES: O=C(NC(=S)Nc1nc2c(s1)CSc1ccccc1-2)c1ccccc1
- IC50 [26]: > 50 µM (not active)
- IC50 [27]: > 50 µM (not active)
- EC50 [25]: 5.11 µM (active)

SMILES: Cc1cc(C)cc(N2C(=O)CC(Sc3nnc[nH]3)C2=O)c1 (configuration not stated)
- IC50 [26]: > 50 µM (not active)

SMILES: CC(C)(C)c1ccc(OCC(=O)N/N=C/c2cc(Br)ccc2OC(=O)c2ccco2)cc1
- AC50 [28]: 5.01 µM (inconclusive)
- AC50 [29]: inconclusive
- CC50 [1]: 15 µM (active)
- AC50 [30]: 1.26 µM (inconclusive)
- AC50 [31]: 2.29 µM (active)

SMILES: Cc1nn(-c2ccccc2Cl)c(Cl)c1/C=N/Nc1nc2ccccc2s1
- EC50 [2]: < 0.1 µM (active)
- EC50 [6]: 0.036 µM (active)
- EC50 [32]: < 0.16 µM (active)
- EC50 [14]: 0.1 µM (active)
- EC50 [15]: < 0.1 µM (active)
- EC50 [19]: 0.086 µM (active)
- EC50 [20]: < 0.1 µM (active)
- IC50 [33]: > 80 µM (inactive)

SMILES: COc1cc(/C=N/NS(=O)(=O)c2ccc3ccccc3c2)ccc1OCc1ccc(C(=O)O)cc1
- EC50 [2]: 9.11 µM (inconclusive)
- AC50 [34]: 4.78 µM (active)
- EC50 [15]: 7.05 µM (active)
- IC50 [35]: 23.6 µM (active)
- EC50 [20]: 10.5 µM (active)
